Measurements taken from patent publication US20100105777A1, “AMIDE OR THIOAMIDE DERIVATIVES AND THEIR USE IN THE TREATMENT OF PAIN” (CARA THERAPEUTICS, INC., priority 2004, published 2010).

Tests used:
Type in all cases: in vivo
[1] = system: rat model of inflammatory pain (formalin-injected paw); experiment: Formalin flinch test; conditions: i.p.
Method: (§1) Inflammatory (Formalin flinch test) and chronic pain (L5/L6 nerve ligation injury) models were used as assays in both rats and mice.
Animals are habituated to the their local environment for about 30 min prior to testing. The formalin test is carried out in a 30×30×30 cm chamber with the front and bottom of the chambers made of clear plexi-glass. Mirrors are placed at a 45° angle under the chambers in order to have an un-obstructive view of the paws. Animals are restrained manually and 2% formalin (aq) is injected subcutaneously into the planar surface of the left paw with a 30 gauge needle. The numbers of paw flinches are then recorded in 5 min intervals from the time of injection for a 60 min period. Elevations of the paw, licking and biting of the injected paw were counted as “flinches”. The […] or “first phase” of the nociceptive response peaked at 5 min after formalin injection and the inflammatory or “second phase” peaked at 30 min after formalin injection. The number of flinches in the first 10 min were representative of the […] phase and the number of flinches from 10 min until 60 min were representative of the inflammatory phase. Antinociception for both phase I and phase II was calculated as follows: […]
Potency (A50) is calculated from the full dose response curve for both phase I and phase II.

[2] = system: rat model of chronic pain (L5/L6 spinal nerve ligation); experiment: L5/L6 nerve ligation injury, tactile allodynia (von Frey)
Method: as §1
(§2) Nerve ligation injury was performed according to the method described previously (Kim and Chung). This methodology produces signs of tactile allodynia and thermal hyperalgesia. Rats were anesthetized with halothane and the L5 and L6 spinal nerves were exposed, carefully isolated, and tightly ligated with 4-0 silk suture distal to the dorsal root ganglia (DRG). After ensuring homeostatic stability the wounds were sutured, and the animals were allowed to recover in individual cages. Sham-operated rats were prepared in an identical fashion except that the L5 and L6 spinal nerves were not ligated. Compound 17 was tested in rats after L5/L6 nerve ligation. Compound administration was directly into the hind paw (i.paw) or into the peritoneal cavity (i.p.).
In the evaluation of the tactile allodynia, the paw withdrawal threshold was determined in response to probing with calibrated von Frey filaments. The rats were kept in suspended cages with wire mesh floors and the von Frey filaments were applied perpendicularly to the planar surface of the paw of the rat until it bent slightly, and was held for 3 to 6 s, or until the paw is withdrawn. […] The 50% paw withdrawal threshold was determined by the nonparametric method. […]

[3] = system: rat model of chronic pain (L5/L6 spinal nerve ligation); experiment: L5/L6 nerve ligation injury, thermal hyperalgesia
Method: as §1, §2

Q: What does the source list for `NC(=O)CCCN(CCCC1CCCCC1)C(=O)Nc1ccccc1` [Compound 17, 4-[1-(3-cyclohexylpropyl)-3-phenylureido]butyramide]?
A: A50 Formalin Phase I ([1]; phase I (first 10 min)): <0.01 mg/kg; A50 Formalin Phase II ([1]; phase II (10-60 min)): 0.01 mg/kg; antiallodynic effect ([2]; 100 μg (in 50 μl) into the paw): 90%; A50 L5/L6 antiallodynia ([2]; i.paw): <30 mg/paw; antihyperalgesic response to thermal testing ([3]; 30 μg (in 50 μl) into the paw): 100%; A50 L5/L6 antihyperalgesia ([3]; i.paw): <30 μg/paw
